Results on 13 compounds are retold here after US9174979B2, “Phenanthroindolizidine compound and NFκB inhibitor containing same as active ingredient” (KABUSHIKI KAISHA YAKULT HONSHA, priority 2008, dated 2015).

Data set [1] relates to human non-small cell lung cancer A549 cells. As to the kind of experiment: Inhibitory action on the proliferation of A549 cells. It is filed as cell-based. The following applies: 96 hours culture, TetraColor ONE; for IC50: Homo sapiens, A549. How it is done: (§1) The action of the phenanthroindolizidine alkaloid compound of the present invention on the proliferation of human colon cancer SW480 cells, HT-29 cells, and human non-small cell lung cancer A549 cells was studied. The SW480 cells were suspended in a 10% FBS/RPMI1640 and then seeded in a 96-well microplate, followed by culturing in 5% CO2 at 37° C. (2000 cells/well). The A549 cells and the HT-29 cells were each suspended in a DMEM medium containing 10% FBS, 100 U/mL penicillin, and 100 μg/mL streptomycin (10% FBS/DMEM) and a DMEM F-12 HAM medium containing 10% FBS, 100 U/mL penicillin, and 100 μg/mL streptomycin (10% FBS/DMEM F12 HAM), and then seeded in 96-well microplates, followed by culturing in 5% CO2 at 37° C. (1000 cells/well). After an overnight culture, the compound of the present invention was added, followed by further culturing for 48 hours (SW480 cells) and 96 hours (A549 cells and HT-29 cells). After culturing, the number of viable cells was counted using TetraColor ONE (Seikagaku Corporation) in accordance with the attached operating procedure. The results were expressed as the concentration of a test compound needed for 50% inhibition of the proliferation of the cells (IC50).

The next data set has as its system NFκB. The data set can be described thus: NFκB luciferase reporter assay in SW480/NRE-Luc cells stimulated with TNFα. The class given is cell-based, human. The following applies: for IC50: Homo sapiens. From the text: (§2) The action of the phenanthroindolizidine alkaloid compound of the present invention on the NFκB activity was studied in a luciferase assay. Human colon cancer SW480 cells were transfected with pNFκB-Luc Plasmid (Stratagene), which is a reporter vector in which a five-time tandem repeat of the NFκB responsive element (NRE) is integrated into the upstream of the luciferase gene, using Lipofectamine 2000 (Invitrogen Corporation) in accordance with the attached operating procedure. Subsequently, the cells were cultured in an RPMI1640 medium containing 10% FBS, 100 U/mL penicillin, 100 μg/mL streptomycin, and 0.5 mg/mL G418 to produce SW480 cells having the luciferase gene, the expression of which is regulated by NRE, stably introduced therein (SW480/NRE-Luc cells). Likewise, SW480 cells were transfected with pGL3-Control Vector (Promega Corporation), which is a reporter vector in which the SV40 promoter is integrated into the upstream of the luciferase gene, to produce SW480 cells having the luciferase gene, the expression of which is regulated by the SV40 promoter, stably introduced therein (SW480/SV40-Luc cells). The SW480/NRE-Luc cells or the SW480/SV40-Luc cells were suspended in an RPMI1640 medium containing 10% FBS, 100 U/mL penicillin, and 100 μg/mL streptomycin (10% FBS/RPMI1640), and then seeded in a 96-well microplate, followed by culturing under conditions of 5% CO2 and at 37° C. (5000 cells/well). After an overnight culture, the compound of the present invention was added, followed by culturing for one hour. Further, 50 ng/mL TNFα (Sigma-Aldrich Corporation) was added, followed by culturing for four hours. Subsequently, a Steady-Glo Luciferase Assay reagent (Promega Corporation) was added, and the luminescent intensity was detected by SpectraMax M5e (Molecular Devices, Inc.) to measure the intracellular luciferase activity. It is to be noted that the action of the compound of the present invention on the NFκB activity or the SV40 promoter activity was shown as IC50 values (the concentration of a test compound needed for 50% inhibition of the induction of the luciferase expression).
For orientation: Reporter assays use an easily measured gene product as a stand-in for the process of interest.

The subject of data set [2] is human colon cancer SW480 cells. The data set can be described thus: Inhibitory action on the proliferation of SW480 cells. The class given is cell-based. The following applies: 48 hours culture, TetraColor ONE; for IC50: Homo sapiens, SW480. The protocol:
as §1

A further data set relates to SV40 promoter. The data set can be described thus: SV40 promoter luciferase reporter assay in SW480/SV40-Luc cells. The class given is cell-based, human. The following applies: for IC50: Homo sapiens.
Text: as §2

For another data set, the system named is mice. The data set can be described thus: Animal toxicity test in mice transplanted with Meth A cells. The following applies: intravenous on days 1, 5, 9, observed for three weeks. The class given is in vivo, mouse. How it is done: Also, the toxicity of known phenanthroindolizidine alkaloid compounds in mice, namely (12aS,13S)-6,7-dimethoxy-9,10,11,12,12a,13-hexahydro-9a-aza-cyclopenta[b]triphenylene-3,13-diol (known compound 1; refer to WO01/023384) and (12aS,13S)-3,6,7-trimethoxy-9,10,11,12,12a,13-hexahydro-9a-aza-cyclopenta[b]triphenylene-13-ol (known compound 2; refer to Planta Med., 2002, 68: 186-188), was simultaneously studied. To a control group, a physiological saline solution as a solvent, was administered.

In data set [3] the test system is human colon cancer HT-29 cells. As to the kind of experiment: Inhibitory action on the proliferation of HT-29 cells. The class given is cell-based. Particulars: 96 hours culture, TetraColor ONE; for IC50: Homo sapiens, HT-29. How it is done: as §1
The mark [4] stands for this setting: SW480, read-out: NFκB inhibitory activity IC50.
Where [5] appears, read: SW480, read-out: SV40 promoter inhibitory activity IC50.
The mark [6] stands for this setting: SW480/NRE-Luc cells, 50 ng/mL TNFα, luciferase expression.
The mark [7] stands for this setting: SW480/SV40-Luc cells, luciferase expression.

Values after ≈ are worked out from the molar mass of the structure shown. Like-named read-outs stand apart in the source and are kept apart here. Where only a bound is given, the exact number is not on record here.

Turning to `COc1cc2c3c(c4ccc(O)cc4c2c(OC)c1OC)[C@H](O)[C@@H]1CCCN1C3.Cl` [Compound 1, (12aS,13S)-5,6,7-trimethoxy-9,10,11,12,12a,13-hexahydro-9a-aza-cyclopenta[b]triphenylene-3,13-diol hydrochloride], the IC50 (as a rule, the concentration needed to halve the response being measured) in data set [1] was 0.56 µg/mL; in the data set on NFκB (setting [4]) it was 0.668 µg/mL; in data set [2], 1.97 µg/mL; with SV40 promoter (setting [5]) it was over 10 µg/mL; in data set [3] it was 0.637 µg/mL. The Mortality rate in the data set with mice (total dose 25 mg/kg) and in the data set with mice (total dose 50 mg/kg) was 0/5 throughout.

For the compound `COc1cc2c3c(c4ccc(O)cc4c2c(OC)c1OC)[C@@H](O)[C@H]1CCCN1C3.Cl` [Compound 2, (12aR,13R)-5,6,7-trimethoxy-9,10,11,12,12a,13-hexahydro-9a-aza-cyclopenta[b]triphenylene-3,13-diol hydrochloride], the IC50 in data set [1] is 0.0025 µg/mL; with NFκB (setting [4]), 0.001 µg/mL; in data set [2], 0.0036 µg/mL; in the data set with SV40 promoter (setting [5]), over 1 µg/mL; in data set [3], 0.0047 µg/mL.

For the compound `Cl.Oc1ccc2c3c(c4ccccc4c2c1)CN1CCC[C@H]1[C@H]3O` [Compound 3, (12aS,13S)-9,10,11,12,12a,13-hexahydro-9a-aza-cyclopenta[b]triphenylene-3,13-diol hydrochloride], the IC50 was 0.107 µg/mL in data set [1]; 0.173 µg/mL in the data set with NFκB (setting [4]); 0.405 µg/mL in data set [2]; over 10 µg/mL in the data set with SV40 promoter (setting [5]); 0.14 µg/mL in data set [3]. Also, the Mortality rate with mice (total dose 25 mg/kg) and in the data set on mice (total dose 50 mg/kg) was 0/5 in each case.

For `Cl.Oc1ccc2c3c(c4ccc(F)cc4c2c1)CN1CCC[C@H]1[C@H]3O` [Compound 4, (12aS,13S)-6-fluoro-9,10,11,12,12a,13-hexahydro-9a-aza-cyclopenta[b]triphenylene-3,13-diol hydrochloride], the IC50 is 0.152 µg/mL in data set [1]; 0.286 µg/mL in the data set with NFκB (setting [4]); 0.503 µg/mL in data set [2]; over 10 µg/mL with SV40 promoter (setting [5]); 0.218 µg/mL in data set [3].

Consider `COc1cc2c3c(c4ccc(O)cc4c2cc1OC)C(N)[C@@H]1CCCN1C3.Cl` (stereo partly drawn) [Compound 7, (S)-13-amino-6,7-dimethoxy-9,10,11,12,12a,13-hexahydro-9a-aza-cyclopenta[b]triphenylene-3-ol hydrochloride], for which the IC50 in data set [1] is 0.265 µg/mL; with NFκB (setting [4]) it was 0.468 µg/mL; in data set [2], 2.34 µg/mL; in the data set with SV40 promoter (setting [5]), over 10 µg/mL; in data set [3], 0.243 µg/mL.

As to `CCOc1cc2c3c(c4ccc(O)cc4c2cc1OCC)C[C@@H]1CCCN1C3.Cl` [Compound 14, (S)-6,7-diethoxy-9,10,11,12,12a,13-hexahydro-9a-aza-cyclopenta[b]triphenylene-3-ol hydrochloride], the IC50 in data set [1] was 0.0021 µg/mL; in the data set on NFκB (setting [4]), 0.0047 µg/mL; in data set [2], 0.0154 µg/mL; in the data set on SV40 promoter (setting [5]) it was over 1 µg/mL; in data set [3] it was 0.0121 µg/mL.

With `COc1cc2c3c(c4ccc(O)c(Cl)c4c2cc1OC)C[C@@H]1CCCN1C3.CS(=O)(=O)O` [Compound 22, (S)-4-chloro-6,7-dimethoxy-9,10,11,12,12a,13-hexahydro-9a-aza-cyclopenta[b]triphenylene-3-ol methanesulfonate], the “A549 proliferation inhibitory action IC50” value in data set [1] came out at 0.00071 µg/mL. Besides, the “NFκB inhibitory activity IC50” value in the data set with NFκB (setting [6]) is 0.00041 µg/mL. Moreover, in data set [2], the “SW480 proliferation inhibitory action IC50” value came to 0.0006 µg/mL. The “SV40 promoter inhibitory activity IC50” value in the data set on SV40 promoter (setting [7]) was over 0.1 µg/mL. Besides, the “HT-29 proliferation inhibitory action IC50” value in data set [3] was 0.0041 µg/mL.

Take `COc1cc2c3c(c4cc(C)c(O)c(C)c4c2cc1OC)C[C@@H]1CCCN1C3.CS(=O)(=O)O` [Compound 26, (S)-6,7-dimethoxy-2,4-dimethyl-9,10,11,12,12a,13-hexahydro-9a-aza-cyclopenta[b]triphenylene-3-ol methanesulfonate]: the “A549 proliferation inhibitory action IC50” value in data set [1] was determined as 0.1002 µg/mL. In addition, the “NFκB inhibitory activity IC50” value with NFκB (setting [6]) came out at 0.0597 µg/mL. In addition, in data set [2], the “SW480 proliferation inhibitory action IC50” value worked out at 0.0321 µg/mL. In the data set with SV40 promoter (setting [7]), the “SV40 promoter inhibitory activity IC50” value was over 10 µg/mL. Also, the “HT-29 proliferation inhibitory action IC50” value in data set [3] came out at 0.05 µg/mL.

In the case of `COc1ccc2c3c(c4cc(OC)c(OC)cc4c2c1)CN1CCC[C@H]1[C@H]3O` [Known Compound 2, (12aS,13S)-3,6,7-trimethoxy-9,10,11,12,12a,13-hexahydro-9a-aza-cyclopenta[b]triphenylene-13-ol, reference compound], the Mortality rate in the data set on mice (total dose 25 mg/kg, 25 mg/kg) is 2/5; in the data set on mice (total dose 25 mg/kg, listed as known compound 2, 25 mg/kg), “some of the mice also died”; in the data set on mice (total dose 50 mg/kg, 50 mg/kg), 5/5; in the data set with mice (total dose 50 mg/kg, listed as known compound 2, 50 mg/kg), “all the mice died”.

With `COc1cc2c3c(c4ccc(O)cc4c2cc1OC)[C@H](O)[C@@H]1CCCN1C3` [Known compound 1, (12aS,13S)-6,7-dimethoxy-9,10,11,12,12a,13-hexahydro-9a-aza-cyclopenta[b]triphenylene-3,13-diol, reference compound], the Mortality rate with mice (total dose 25 mg/kg) is 0/5; with mice (total dose 50 mg/kg, 50 mg/kg), 5/5; in the data set with mice (total dose 50 mg/kg, listed as known compound 1, 50 mg/kg), “all the mice died”.

Regarding `S=C(S)N1CCCC1` [PDTC, pyrrolidine dithiocarbamate, reference compound], the IC50 with NFκB (SW480/NRE-Luc cells, 50 ng/mL TNFα, luciferase expression, read-out: NFκB inhibitory activity IC50) was 2.4 µg/mL (≈ 16.3 µM); in the data set on SV40 promoter (SW480/SV40-Luc cells, luciferase expression, read-out: SV40 promoter inhibitory activity IC50), over 10 µg/mL.

Regarding “(S)-2-chloro-6,7-dimethoxy-9,10,11,12,12a,13-hexahydro-9a-aza-cyclopenta[b]triphenylene-3-ol methanesulfonate [Compound 21]”, the “A549 proliferation inhibitory action IC50” value in data set [1] is 0.008 µg/mL. Also, the “NFκB inhibitory activity IC50” value with NFκB (setting [6]) was 0.0054 µg/mL. Also, the “SW480 proliferation inhibitory action IC50” value in data set [2] was 0.0067 µg/mL. For the same compound, the “SV40 promoter inhibitory activity IC50” value in the data set with SV40 promoter (setting [7]) is over 1 µg/mL. For the same compound, the “HT-29 proliferation inhibitory action IC50” value in data set [3] was determined as 0.0068 µg/mL.

As to “(S)-2-fluoro-6,7-dimethoxy-9,10,11,12,12a,13-hexahydro-9a-aza-cyclopenta[b]triphenylene-3-ol methanesulfonate [Compound 25]”, the “A549 proliferation inhibitory action IC50” value in data set [1] is 0.0026 µg/mL. Moreover, the “NFκB inhibitory activity IC50” value with NFκB (setting [6]) is 0.0016 µg/mL. The “SW480 proliferation inhibitory action IC50” value in data set [2] turned out to be 0.0031 µg/mL. Further, the “SV40 promoter inhibitory activity IC50” value in the data set with SV40 promoter (setting [7]) is over 1 µg/mL. Besides, the “HT-29 proliferation inhibitory action IC50” value in data set [3] is 0.007 µg/mL.
